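Where inhibition never reached the appropriate level, the endpoint shown equals the highest concentration tested. Otherwise, values were interpolated linearly from a five-concentration, 48-hour dose response in 96-well plates. GI50 marks 50% less growth. At the TGI there is no net growth.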
Tests used:
Experiment in all cases: growth of human tumour cells (NCI), 48 h
[1] = tested on: KM12 colon
[2] = tested on: TK-10 renal
[3] = tested on: SK-MEL-28 melanoma
[4] = tested on: MDA-MB-231 breast
[5] = tested on: SK-OV-3 ovarian
[6] = tested on: A549 NSCLC
[7] = tested on: SK-MEL-5 melanoma
[8] = tested on: MALME-3M melanoma
[9] = tested on: SW-620 colon
[10] = tested on: HCC-2998 colon
[11] = tested on: K-562 leukemia
[12] = tested on: ACHN renal
[13] = tested on: OVCAR-3 ovarian
[14] = tested on: RPMI-8226 leukemia
[15] = tested on: HCT-15 colon
[16] = tested on: SNB-19 CNS
[17] = tested on: IGROV1 ovarian
[18] = tested on: DU-145 prostate
[19] = tested on: HL-60(TB) leukemia
[20] = tested on: 786-0 renal
[21] = tested on: SN12C renal
[22] = tested on: NCI-H226 lung
[23] = tested on: NCI/ADR-RES ovarian
[24] = tested on: MDA-MB-468 breast
[25] = tested on: UO-31 renal
[26] = tested on: SF-295 CNS
[27] = tested on: MDA-MB-435
[28] = tested on: HCT-116 colon
[29] = tested on: RXF 393 renal
[30] = tested on: HS 578T breast
[31] = tested on: M14 melanoma
[32] = tested on: COLO 205 colon
[33] = tested on: EKVX NSCLC
[34] = tested on: LOX IMVI melanoma
[35] = tested on: T-47D breast
[36] = tested on: MCF7 breast
[37] = tested on: OVCAR-8 ovarian
[38] = tested on: BT-549 breast
[39] = tested on: SF-539 CNS
[40] = tested on: NCI-H522 lung
[41] = tested on: SK-MEL-2 melanoma
[42] = tested on: NCI-H23 lung
[43] = tested on: PC-3 prostate
[44] = tested on: UACC-62 melanoma
[45] = tested on: OVCAR-4 ovarian
[46] = tested on: U251 CNS
[47] = tested on: OVCAR-5 ovarian
[48] = tested on: CAKI-1 renal
[49] = tested on: SF-268 CNS
[50] = tested on: CCRF-CEM leukemia
[51] = tested on: HT29 colon
[52] = tested on: UACC-257 melanoma
[53] = tested on: HOP-62 NSCLC
[54] = tested on: MOLT-4 leukemia
[55] = tested on: NCI-H460 lung
[56] = tested on: HOP-92 NSCLC
[57] = tested on: A498 renal

Which GI50 [1] does the source give for `CN(C)CCn1c2ccccc2c2nc3cc4ccccc4cc3nc21` here?
Its GI50 is 2.8 µM.

And the TGI [1]?
Its TGI is 15.2 µM.

And the TGI [2]?
The TGI was 22.4 µM.

And the GI50 [3]?
The GI50 was 5.72 µM.

What about the TGI [3] of the same compound?
Its TGI is 18.3 µM.

What about the GI50 [4] of the same compound?
Its GI50 is 2.51 µM.

And the TGI [4]?
Its TGI is 15.3 µM.

What about the GI50 [5] of the same compound?
Its GI50 is 3.98 µM.

And the TGI [5]?
Its TGI is 17.2 µM.

And the GI50 [6]?
Its GI50 is 1.02 µM.

And the TGI [6]?
The TGI was 4.52 µM.

What about the GI50 [7] of the same compound?
The GI50 was 2.88 µM.

And the TGI [7]?
Its TGI is 11.9 µM.

And the GI50 [8]?
The GI50 was 2.41 µM.

And the TGI [8]?
Its TGI is 8.72 µM.

What about the GI50 [9] of the same compound?
Its GI50 is 2.08 µM.

And the TGI [9]?
Its TGI is 12.9 µM.

And the GI50 [10]?
The GI50 was 1.29 µM.

What about the TGI [10] of the same compound?
The TGI was 2.66 µM.

And the GI50 [11]?
Its GI50 is 1.79 µM.

What about the TGI [11] of the same compound?
The TGI was 5.45 µM.

And the GI50 [12]?
Its GI50 is 1.59 µM.

What about the TGI [12] of the same compound?
The TGI was 11.5 µM.

And the GI50 [13]?
The GI50 was 4.53 µM.

What about the TGI [13] of the same compound?
Its TGI is 17.2 µM.

What about the TGI [14] of the same compound?
Its TGI is 13 µM.

What about the GI50 [15] of the same compound?
The GI50 was 1.06 µM.

And the TGI [15]?
Its TGI is 2.47 µM.

What about the GI50 [16] of the same compound?
The GI50 was 5.8 µM.

And the TGI [16]?
Its TGI is 18.9 µM.

And the GI50 [17]?
Its GI50 is 1.63 µM.

What about the TGI [17] of the same compound?
The TGI was 14.2 µM.

What about the GI50 [18] of the same compound?
Its GI50 is 2.65 µM.

What about the TGI [18] of the same compound?
Its TGI is 13.2 µM.

And the GI50 [19]?
Its GI50 is 1.07 µM.

What about the TGI [19] of the same compound?
Its TGI is 2.85 µM.

What about the GI50 [20] of the same compound?
The GI50 was 3.95 µM.

And the TGI [20]?
The TGI was 16.5 µM.

And the GI50 [21]?
The GI50 was 2 µM.

What about the TGI [21] of the same compound?
The TGI was 15.9 µM.

What about the GI50 [22] of the same compound?
Its GI50 is 1.89 µM.

What about the TGI [22] of the same compound?
Its TGI is 6.59 µM.

What about the GI50 [23] of the same compound?
Its GI50 is 2.62 µM.

What about the TGI [23] of the same compound?
The TGI was 15.3 µM.

And the GI50 [24]?
Its GI50 is 1.26 µM.

What about the TGI [24] of the same compound?
The TGI was 6.36 µM.

And the GI50 [25]?
Its GI50 is 0.335 µM.

And the TGI [25]?
The TGI was 11.6 µM.

And the GI50 [26]?
The GI50 was 1.8 µM.

What about the TGI [26] of the same compound?
The TGI was 12 µM.

What about the GI50 [27] of the same compound?
The GI50 was 4.19 µM.

What about the TGI [27] of the same compound?
The TGI was 16.7 µM.

What about the GI50 [28] of the same compound?
The GI50 was 2.08 µM.

And the TGI [28]?
The TGI was 14.1 µM.

And the GI50 [29]?
The GI50 was 2.23 µM.

What about the TGI [29] of the same compound?
Its TGI is 10.2 µM.

And the GI50 [30]?
Its GI50 is 12.6 µM.

And the TGI [30]?
The TGI was 39 µM.

And the GI50 [31]?
Its GI50 is 2.48 µM.

And the TGI [31]?
The TGI was 11.1 µM.

And the GI50 [32]?
The GI50 was 2.12 µM.

What about the TGI [32] of the same compound?
Its TGI is 10.4 µM.

And the GI50 [33]?
The GI50 was 3.36 µM.

And the TGI [33]?
The TGI was 16.2 µM.

What about the GI50 [34] of the same compound?
The GI50 was 1.16 µM.

What about the TGI [34] of the same compound?
Its TGI is 2.42 µM.

What about the GI50 [35] of the same compound?
The GI50 was 3.52 µM.

And the TGI [35]?
Its TGI is 19.4 µM.

What about the GI50 [36] of the same compound?
Its GI50 is 1.29 µM.

What about the TGI [36] of the same compound?
The TGI was 13.1 µM.

What about the GI50 [37] of the same compound?
The GI50 was 1.47 µM.

And the TGI [37]?
Its TGI is 3.54 µM.

And the GI50 [38]?
The GI50 was 4.92 µM.

And the TGI [38]?
Its TGI is 18.5 µM.

What about the GI50 [39] of the same compound?
Its GI50 is 3.01 µM.

And the TGI [39]?
Its TGI is 12.8 µM.

What about the GI50 [40] of the same compound?
The GI50 was 2.5 µM.

What about the TGI [40] of the same compound?
Its TGI is 14.5 µM.

What about the GI50 [41] of the same compound?
Its GI50 is 8.51 µM.

And the TGI [41]?
Its TGI is 21.5 µM.

What about the GI50 [42] of the same compound?
Its GI50 is 2.86 µM.

What about the TGI [42] of the same compound?
The TGI was 14.6 µM.

What about the GI50 [43] of the same compound?
The GI50 was 2.44 µM.

What about the TGI [43] of the same compound?
The TGI was 13.5 µM.

What about the GI50 [44] of the same compound?
Its GI50 is 5.13 µM.

What about the TGI [44] of the same compound?
Its TGI is 18.8 µM.

And the GI50 [45]?
Its GI50 is 5.95 µM.

And the TGI [45]?
The TGI was 22.1 µM.

What about the GI50 [46] of the same compound?
Its GI50 is 2.93 µM.

What about the TGI [46] of the same compound?
Its TGI is 14.1 µM.

And the GI50 [47]?
Its GI50 is 3.73 µM.

What about the TGI [47] of the same compound?
Its TGI is 16.8 µM.

And the GI50 [48]?
Its GI50 is 1.28 µM.

What about the TGI [48] of the same compound?
The TGI was 12.3 µM.

And the GI50 [49]?
Its GI50 is 3.8 µM.

What about the TGI [49] of the same compound?
The TGI was 16.4 µM.

And the GI50 [50]?
The GI50 was 6.37 µM.

And the TGI [50]?
Its TGI is 21.1 µM.

And the GI50 [51]?
Its GI50 is 1.41 µM.

And the TGI [51]?
The TGI was 3.8 µM.

And the GI50 [52]?
The GI50 was 4.37 µM.

And the TGI [52]?
The TGI was 16.6 µM.

What about the TGI [53] of the same compound?
Its TGI is 16.4 µM.

And the GI50 [54]?
Its GI50 is 2.76 µM.

And the TGI [54]?
Its TGI is 12.4 µM.

What about the GI50 [55] of the same compound?
The GI50 was 1.17 µM.

And the TGI [55]?
The TGI was 14.5 µM.

And the GI50 [56]?
Its GI50 is 0.0473 µM.

And the TGI [56]?
Its TGI is 2.12 µM.

And the GI50 [57]?
Its GI50 is 14.7 µM.

And the TGI [57]?
Its TGI is 32 µM.
